Like-named read-outs stand apart in the source and are kept apart here.
Experiments:
solid tumors = experiment: Tumor response assessment (RECIST v.1.1); type: in vivo, dog
Protocol: (§1) A total of 40 dogs were enrolled in this study, with dogs initially assigned to toceranib at 2.5 mg/kg or 2.75 mg/kg EOD. All dogs were placed on famotidine at 0.5-1 mg/kg once per day at study initiation and owners were instructed to administer the toceranib in the morning with food. Physical examination, routine bloodwork (CBC, biochemistry profile) and blood sampling for assessment of toceranib and VEGF plasma concentrations was performed pretreatment and on days 0, 7, 14 and 30 of treatment. […] Owners of dogs that experienced CR, PR, or SD at study day 30 were offered the option of continuing toceranib administration for an additional 6 months (provided at no cost), although patient data was not officially captured beyond day 30.
Tumor assessments were performed on days 0, 7, 14 and 30 of study. Tumor assessment was performed using caliper measurement with digital photography documentation, thoracic radiography, ultrasonography, or spiral computerized tomography (CT) as indicated. Determination of antitumor efficacy was based on objective tumor assessments made according to the RECIST v.1.1 guidelines using unidimensional measurements. Response to therapy was defined as complete response (CR, resolution of all target and non-target lesions, no new lesions), partial response (PR, at least 30% decrease in the longest diameter of target lesions, no progression of non-target lesions, and no new lesions), stable disease (SD, decrease in target lesions of less than 30% or increase of target lesions less than 20%, no progression of non-target lesions, and no new lesions) or progressive disease (PD, greater than 20% increase in target lesions, progression of non-target, new lesions). Dogs were defined as experiencing clinical benefit if they had CR, PR, or SD.

[1] = system: dogs with a variety of tumors; parameters: method as in PMID 12855656; settings: cited from earlier work
[2] = Toceranib plasma concentrations (LC-MS/MS) in dogs with solid tumors; type: in vivo, dog; settings: for Cmax: dog, plasma, oral
Protocol: as §1
Blood was collected into EDTA tubes and centrifuged at 3000 × g for 10 minutes. Plasma was then collected and split evenly into two portions in cryovials, then stored at -80°C until analysis was performed for toceranib and VEGF concentrations.
Toceranib was quantitated in plasma samples using the method previously described. Briefly, 50 μL aliquots of plasma were fortified with an internal standard (IS), a deuterated toceranib analog. Toceranib and the IS were extracted from the plasma by protein precipitation using acetonitrile. The analyte and IS are light sensitive and undergo photoisomerization when exposed to light. Therefore, the 96-well plates were protected from light by wrapping the bottom and sides with foil and securing with adhesive tape. Calibration standards (1 to 1000 ng/mL) and quality control (QC) samples were prepared with separate weighing of toceranib reference material (Pfizer, Kalamazoo, MI, 98.1% purity). Standard and QC solutions were prepared by serially diluting a stock solution (100 μg/mL in methanol) into control canine plasma so that no standard or QC sample contained more that 1% methanol. Study samples were analyzed as single replicates.
The prepared samples were injected onto a Zorbax StableBond CN column and elution of toceranib and the IS accomplished with an acetonitrile:15 mM ammonium formate solution (pH 3.25) 30/70 v/v mobile phase with a 80/20 v/v rinse for 2.3 minutes at 5 minutes after each injection. Detection was accomplished using MS/MS using a Sciex 4000 triple-quadrupole mass spectrometer with Turboionspray ionization source (MDS Sciex, Toronto, Canada). Transition ions of m/z 397.2 → 283.2 for toceranib and 401.3 → 283.2 for the IS were used. The standard curves were generated using peak area ratios of toceranib to the IS and a 1/concentration^2 weighted quadratic regression. Toceranib concentrations were determined by interpolation over the quantitation range of 1.00 ng/mL to 1000 ng/mL.

Structure (SMILES): Cc1[nH]c(/C=C2\C(=O)Nc3ccc(F)cc32)c(C)c1C(=O)NCCN1CCCC1 [toceranib, Toceranib phosphate]
- average time dogs remained on toceranib after day 30 (solid tumors; 35 of the 40 dogs): 16.7 weeks
- PD (number of dogs) (solid tumors; Nasal carcinoma, N 5): 2
- PR (number of dogs) (solid tumors; Salivary gland adenocarcinoma, N 1): 1
- PD (number of dogs) (solid tumors; Soft tissue sarcoma, N 7): 2
- PR (number of dogs) (solid tumors; Squamous cell carcinoma, N 4): 2
- PR (number of dogs) (solid tumors; Thyroid carcinoma, N 7): 2
- clinical benefit (number of dogs) (solid tumors; over 30 days): 36/40
- PD (number of dogs), all tumor types (solid tumors; over 30 days, 40 dogs): 4 dogs
- PD (percent of dogs) (solid tumors; over 30 days, 40 dogs): 10%
- PR (number of dogs), all tumor types (solid tumors; over 30 days, 40 dogs): 5/40
- PR (percent of dogs) (solid tumors; over 30 days, 40 dogs): 12.5%
- overall clinical benefit rate (CR + PR + SD) (solid tumors; over 30 days, 40 dogs): 90%
- dogs that transitioned from SD to PR after day 30 (solid tumors; thyroid carcinoma): one
- dogs that transitioned to CR after day 30 (solid tumors; two SCC and one salivary gland adenocarcinoma): 3 dogs
- complete responses, CR (number of dogs) ([1]; 2.5 mg/kg EOD, 16 dogs): 4
- objective response (number of dogs) ([1]; 2.5 mg/kg EOD, 16 dogs): 6 dogs
- objective response (percent) ([1]; 2.5 mg/kg EOD, 16 dogs): 37.5%
- partial responses, PR (number of dogs) ([1]; 2.5 mg/kg EOD, 16 dogs): 2
- stable disease, SD (number of dogs) ([1]; 2.5 mg/kg EOD, 16 dogs): 5 dogs
- CR (number of dogs) ([1]; 3.25 mg/kg EOD, 20 dogs): 2
- PR (number of dogs) ([1]; 3.25 mg/kg EOD, 20 dogs): 6
- objective response (number of dogs) ([1]; 3.25 mg/kg EOD, 20 dogs): 8
- course of presumed Cmax plasma concentration ([2]; EOD regimen, levels out by day 30): increased gradually in most dogs over the first 2 weeks of dosing
- dogs with Cmax at 12 hours (number) ([2]; day 30): 12 dogs
- reported Cmax as percent of the 12 hour concentration ([2]; day 30, the 12 dogs with Cmax at 12 hours): 51% to 98%
- Cmax ([2]; all dose ranges above 2.4 mg/kg, days 0, 7, 14, 30, read-out: median Cmax): > 40 ng/mL
- Cmax ([2]; dose ranges 2.4-2.9 mg/kg EOD, by day 30, read-out: mean presumed Cmax): 100 to 200 ng/mL
- Median plasma concentration measured at 6 or 8 hours, level after first two weeks ([2]; dogs dosed 2.4-2.9 mg/kg EOD): 100 to 120 ng/mL
- difference among dosing groups in 6 or 8 hour drug concentrations (presumed Cmax) ([2]; dogs dosed 2.4-2.9 mg/kg, each time point): no significant difference
- plasma drug concentration relative to the other dose groups ([2]; dogs dosed at 2.30-2.39 mg/kg (3 dogs)): lower concentrations of drug at all time points
- average 6–8 hr plasma concentration ([2]; dogs with solid tumors, 2.4-2.9 mg/kg every other day): 100 to 120 ng/mL

Reference: PMC3850926, “Evaluation of the adverse event profile and pharmacodynamics of toceranib phosphate administered to dogs with solid tumors at doses below the maximum tolerated dose” (BMC Veterinary Research, 2013)
